Tests used:
[1] = system: macrophages; test: Immunohistochemical count of macrophages (anti-F4/80) recruited to the wound; type: in vivo, mice; conditions: natural Ot-WHP dripped to wound; days 2 and 3 after operation; vs negative control
Description: (§1) The mice were treated according to the method in Example 3. The drugs in the negative control group and the natural Ot-WHP group were dripped to wounds of corresponding mice. At specified time point (0.5, 1, 2, 3 days) after the operation, the mice were sacrificed. A biopsy tissue containing the wound center was taken, immobilized with 10% formalin, then dehydrated by ethanol, washed with xylene, and finally embedded in paraffin. The paraffin block was cut into 5 μm slices, deparaffinized, and hydrated, and antigen retrieval was performed for immunohistochemical analysis. The slice was blocked with 5% BSA for non-specific sites, incubated with the primary antibody (anti-Ly6G for neutrophils, and anti-F4/80 for macrophages) at 4° C., and immunostained with horseradish peroxidase and DBA. The infiltration by neutrophils and macrophages was measured by statistically counting the immunostained anti-Ly6G and anti-F4/80 cells.
(§2) FIGS. 4A1-A4 show the immunohistochemical results of neutrophils recruited on days 0.5 and 1 after operation of mice in different groups. FIGS. 4C1-C4 show the immunohistochemical results of macrophages recruited on days 2 and 3 after operation of mice in different groups. FIGS. 4B1-B2 show the statistical results of neutrophils recruited on days 0.5 and 1 after operation of mice in different groups. […]

[2] = system: mouse neutrophils; test: Transwell migration in co-incubation system with BMDMs in lower chamber; type: cell-based; conditions: 25-100 μg/mL, 8 h
Description: (§3) In a co-incubation system, mouse bone marrow-derived macrophages (BMDMs, 4×10^6 cells/mL, 500 μL) resuspended in RPMI 1640 medium containing 2% FBS were plated in the lower chamber (24-well plate) of the co-incubation chamber. After adherence, the prepared mouse neutrophils (7×10^6 cells/mL, 100 μL) or bone marrow-derived macrophages (BMDMs, 7×10^6 cells/mL, 100 μL) were added to the Transwell chamber with a pore size of 3.0 μm (upper chamber, 24-well plate). Then 500 μL of Ot-WHP (25, 50, 100 μg/mL, dissolved in RPMI 1640 medium containing 2% FBS) or the culture medium (control) was added to the lower chamber, and then cultured in a cell incubator at 37° C. for 8 h. The cells in the upper chamber were collected and counted with a hemocytometer. The reduced cells in the upper chamber are the migrated cells

[3] = system: neutrophils; test: Immunohistochemical count of neutrophils (anti-Ly6G) recruited to the wound; type: in vivo, mice; conditions: natural Ot-WHP dripped to wound; days 0.5 and 1 after operation; vs negative control
Description: as §1, §2

[4] = system: α-SMA in fibroblasts; test: α-SMA expression in fibroblasts by Western blot, direct; type: cell-based, mouse; conditions: fibroblasts alone, treated as in Example 8
Description: (§4) Keratinocytes HaCat and mouse fibroblasts (5×10^3 cells/well, 100 μL/well) were inoculated into a 96-well plate, and incubated with different concentrations of Ot-WHP (25, 50, and 100 μg/mL). PBS was used as a control. After HaCat was incubated with Ot-WHP for 24 h, and the fibroblasts were incubated with Ot-WHP for 72 h, 10 μl of Cell Counting Kit-8 (CCK-8) solution was added to each well, and incubated for another 2-4 h at 37° C. The absorbency at 450 nm was detected on a microplate reader.
(§5) The method was the same as that in Example 8. The fibroblasts treated in Example 8 were lysed with RIPA cell lysis solution. The protein was extracted, and the expression of α-SMA was detected by Western blot. A higher expression level of α-SMA means a higher transformation of fibroblasts into […]. The supernatant of the fibroblasts treated in Example 8 was collected, and the production of collagen in the supernatant was quantitatively detected with an ELISA kit.

[5] = system: skin wounds of mice; test: Chemokine and cytokine production in skin wound tissue homogenate; type: in vivo; conditions: days 0, 0.5, 1, 2, 4, 6, vs PBS
Description: Then whether Ot-WHP can induce the production of chemokines and cytokines in the skin wounds of mice was tested. At specified time points (days 0, 0.5, 1, 2, 4, and 6), the wound tissue of the mice was removed and homogenized with 0.1 M PBS (containing 1 mM PMSF, 1 mL/g tissue) in a glass homogenizer. After the homogenization, the homogenate was centrifuged at 12000×g and 4° C. for 30 min. The supernatant was collected, and the chemokines (CXCL1 and CCL2) and cytokines (including TNF-α and TGF-β1) were determined.

[6] = system: bone marrow-derived macrophages (BMDMs); test: Transwell migration, direct (peptide in lower chamber); type: cell-based, mouse; conditions: 25-100 μg/mL, 8 h, no macrophages in lower chamber
Description: (§6) To clarify how Ot-WHP chemoattracts neutrophils and macrophages to the wound area, the prepared mouse neutrophils or bone marrow-derived macrophages (BMDMs) were resuspended in RPMI 1640 medium containing 2% FBS at a cell density of 7×10^6 cells/mL. 100 μL was pipetted to a Transwell chamber with a pore size of 3.0 μm (upper chamber, 24-well plate). Then 500 μL of Ot-WHP (25, 50, 100 μg/mL, dissolved in RPMI 1640 medium containing 2% FBS) or the culture medium (control) was pipetted to the lower chamber, and then cultured in a cell incubator at 37° C. for 8 h. The cells in the lower chamber were collected and counted with a hemocytometer.

[7] = system: fibroblasts; test: Collagen in fibroblast supernatant by ELISA, direct; type: cell-based, mouse; conditions: fibroblasts alone
Description: as §4, §5

[8] = system: fibroblasts; test: Collagen in fibroblast supernatant by ELISA, co-incubation with macrophages; type: cell-based, mouse; conditions: fibroblasts co-incubated with macrophages
Description: (§7) HaCat was co-incubated with THP-1 derived macrophages, and mouse fibroblasts were co-incubated with mouse macrophages BMDMs. HaCat (1×10^5 cells/well) or mouse fibroblasts (1×10^5 cells/well) were inoculated into a 24-well plate (lower chamber) one day in advance. After adherence, corresponding macrophages (1×10^5 cells/well, 100 μL) and different concentrations of Ot-WHP (25, 50, 100 μg/mL) or Vehicle (PBS, control) were added to the co-incubation chamber (upper chamber). After HaCat was co-incubated with THP-1-derived macrophages for 24 h, and the fibroblasts were co-incubated with mouse macrophages BMDMs for 72 h, the co-incubated upper chamber was discarded, and the cell activity in the lower chamber was detected by CCK-8.
as §5

[9] = system: bone marrow-derived macrophages (BMDMs); test: Transwell migration in co-incubation system with BMDMs in lower chamber; type: cell-based, mouse; conditions: 25-100 μg/mL, 8 h
Description: as §3

[10] = system: HaCat; test: Keratinocyte proliferation, co-incubation with THP-1 derived macrophages (CCK-8); type: cell-based; conditions: HaCat with THP-1 derived macrophages, 25, 50, 100 μg/mL, 24 h
Description: as §7

[11] = system: α-SMA in fibroblasts; test: α-SMA expression in fibroblasts by Western blot, co-incubation with macrophages; type: cell-based, mouse; conditions: fibroblasts co-incubated with macrophages
Description: as §7, §5

[12] = system: mouse fibroblasts; test: Fibroblast proliferation, co-incubation with mouse macrophages BMDMs (CCK-8); type: cell-based; conditions: mouse fibroblasts with BMDMs, 25, 50, 100 μg/mL, 72 h
Description: as §7

[13] = system: NF-κB (IκBα, p65 subunit); test: Activation of NF-κB signaling in BMDMs; type: cell-based, mouse; conditions: BMDMs, 0, 25, 50, 100 μg/mL, 30 min
Description: (§8) Mouse bone marrow-derived macrophages (BMDMs) were inoculated into a 6-well plate and cultured without serum for 16 h. For the detection of MAPKs and NF-κB, BMDMs were incubated with different concentrations of Ot-WHP (0, 25, 50, 100 μg/mL) for 30 min. For the detection of TGF-β/Smad signaling pathway, BMDMs were incubated with different concentrations of Ot-WHP (0, 25, 50, 100 μg/mL) for 24 h, or BMDMs were incubated with 100 μg/mL Ot-WHP, with or without TGF-β1 antibody.

[14] = system: mouse neutrophils; test: Transwell migration, direct (peptide in lower chamber); type: cell-based; conditions: 25-100 μg/mL, 8 h, no macrophages in lower chamber
Description: as §6

[15] = system: Smad (Smad2, Smad3); test: Activation of TGF-β/Smad signaling in BMDMs; type: cell-based, mouse
Description: as §8

[16] = system: mouse bone marrow-derived macrophages (BMDMs); test: Chemokine and cytokine production in BMDM supernatant; type: cell-based; conditions: 25, 50, 100 μg/mL, 24 h, vs PBS
Description: To clarify why Ot-WHP can cause the migration of neutrophils and macrophages in the coexistence of macrophages, mouse bone marrow-derived macrophages (BMDMs, 5×10^5 cells/well, DMEM medium, 2% FBS) were plated in a 24-well plate, Ot-WHP (25, 50, 100 μg/mL) or an equal volume of PBS (Vehicle) were added, and cultured for 24 h. The supernatant was collected, and centrifuged at 10000×g for 10 min. The chemokines and cytokines were determined.

[17] = system: Keratinocytes HaCat; test: Keratinocyte proliferation, direct (CCK-8); type: cell-based; conditions: HaCat, 25, 50, 100 μg/mL, 24 h
Description: as §4

[18] = system: mouse fibroblasts; test: Fibroblast proliferation, direct (CCK-8); type: cell-based; conditions: mouse fibroblasts, 25, 50, 100 μg/mL, 72 h
Description: as §4

[19] = system: mouse skin wounds; test: Skin wound healing in mice (8 mm biopsy punch wound on the back); type: in vivo, BALB/c mice; conditions: 20 μL, 200 μg/mL dripped into wound once a day for 8 days; days 2, 4, 6, 8 after operation; vs PBS
Description: Experimental animals BALB/c mice, female, 6-8 weeks old, weighed 18-20 g, were purchased from Shanghai Slac Animal Co., Ltd. The mice were anesthetized by intraperitoneal injection of 2% sodium pentobarbital (0.1 mL/20 g), and the back was shaved with an electric razor and disinfected with iodophor. A hole was punched in the exposed back by a biopsy punch having a diameter of 8 mm. After the operation, the mice were kept in separate cages until the end of the experiment. The mice were randomly divided into 6 groups having 5 animals in each group, including a negative control group (20 μL PBS), a natural Ot-WHP group (20 μL, 200 μg/mL), a synthetic Ot-WHP group (20 μL, 200 μg/mL), a scrambled Ot-WHP group (SEQ ID NO:2, 20 μL, 200 μg/mL), an AH90 positive polypeptide control group (20 μL, 200 μg/mL), and an EGF growth factor control group (20 μL, 100 μg/mL). The drugs were dripped into corresponding wounds in mice once a day for 8 days.
FIGS. 3A1-A4 show the wound healing rate of mice in different experimental groups at 2, 4, 6, and 8 days after surgery. In the figures, Vehicle represents the negative control group; synthetic Ot-WHP represents the synthetic Ot-WHP group; Natural Ot-WHP represents the natural Ot-WHP group; and Scrambled Ot-WHP represents the scrambled Ot-WHP group.

[20] = system: MAPKs (ERK, JNK subunit); test: Activation of MAPKs signaling in BMDMs; type: cell-based, mouse; conditions: BMDMs, 0, 25, 50, 100 μg/mL, 30 min
Description: as §8

Ot-WHP: immunomodulating peptide of 24 amino acids from concave-eared torrent frog skin, sequence ATAWDLGPHGIRPLRPIRIRPLCG (SEQ ID NO:1); natural (purified) or chemically synthesized (Ot-WHP Peptide; listed as Odorrana tormota)
migration of macrophages to the wound [1]: promote the migration of neutrophils and macrophages to the wound
migration of neutrophils when macrophages coexist [2]: significantly causes the migration
migration of neutrophils to the wound [3]: promote the migration of neutrophils and macrophages to the wound
expression of α-SMA in fibroblasts (transformation into fibrocytes), direct [4]: no direct effect on the expression of α-SMA in fibroblasts
CCL2 production in skin wounds [5]: effectively induce the production
CXCL1 production in skin wounds [5]: effectively induce the production
TGF-β1 production in skin wounds [5]: effectively induce the production
TNF-α production in skin wounds [5]: effectively induce the production
migration of macrophages, direct [6]: does not directly cause the migration
collagen production by fibroblasts, direct [7]: no direct effect on the collagen production by fibroblasts
collagen production by fibroblasts with coexisting macrophages [8]: promote the collagen production by fibroblasts
migration of macrophages when macrophages coexist [9]: significantly causes the migration
proliferation of keratinocytes when macrophages coexist [10]: can promote the proliferation
expression of α-SMA by fibroblasts (transformation into fibrocytes) with coexisting macrophages [11]: promote the expression of α-SMA by fibroblast
proliferation of fibroblasts when macrophages coexist [12]: can promote the proliferation
activation of NF-κB (IκBα, p65 subunit) signaling pathway [13]: activates
migration of neutrophils, direct [14]: does not directly cause the migration
activation of Smad (Smad2, Smad3) signaling pathway ([15]; BMDMs, 0, 25, 50, 100 μg/mL, 24 h): activates
dependence of Smad activation on TGF-β ([15]; BMDMs, 100 μg/mL, with or without TGF-β1 antibody): dependent on the production of TGF-β induced by Ot-WHP
CCL2 production in BMDMs [16]: induces mouse BMDMs to produce
CXCL1 production in BMDMs [16]: induces mouse BMDMs to produce
CXCL2 production in BMDMs [16]: induces mouse BMDMs to produce
CXCL3 production in BMDMs [16]: induces mouse BMDMs to produce
IL-1β production in BMDMs [16]: induces mouse BMDMs to produce
IL-6 production in BMDMs [16]: induces mouse BMDMs to produce
TGF-β1 production in BMDMs [16]: induces mouse BMDMs to produce
TNF-α production in BMDMs [16]: induces mouse BMDMs to produce
proliferation of keratinocytes, direct [17]: cannot directly promote the proliferation
proliferation of fibroblasts, direct [18]: cannot directly promote the proliferation
healing of mouse skin wounds (wound healing rate) [19]: significantly promote the healing of mouse skin wounds with an effect comparable to AH90 and EGF
activation of MAPKs (ERK, JNK subunit) signaling pathway [20]: activates

scrambled Ot-WHP: scrambled Ot-WHP, SEQ ID NO:2, control peptide (PGPIPAHLGRRWAILIRPDLTRCG; Scrambled Ot-WHP Peptide) [reference compound]
healing of mouse skin wounds (wound healing rate) [19]: no activity to promote wound repair

— patent US11884706B2, “Immunomodulating peptide derived from concave-eared torrent frog and use thereof” (priority 2019, dated 2024)
